Reference: the NIST ThermoML archive (doi:10.1016/j.tca.2009.10.017)
Several values for one entry are separate records, joined by “and”; a condition that tells them apart may be missing. Equal values may be shown once.

Cl[C@H]1[C@H](Cl)[C@@H](Cl)[C@@H](Cl)[C@H](Cl)[C@H]1Cl [γ-1,2,3,4,5,6-hexachlorocyclohexane]
vapor or sublimation pressure
Conditions | Crystal | Liquid
347.1 K, isothermal thermogravimetry | 0.0017 kPa | –
349.8 K, isothermal thermogravimetry | 0.0019 kPa | –
349.9 K, isothermal thermogravimetry | 0.002 kPa | –
351.9 K, isothermal thermogravimetry | 0.0025 kPa | –
352 K, isothermal thermogravimetry | 0.0027 kPa | –
354.4 K, isothermal thermogravimetry | 0.0034 kPa | –
355 K, isothermal thermogravimetry | 0.0031 kPa | –
356.2 K, isothermal thermogravimetry | 0.0039 kPa | –
356.4 K, isothermal thermogravimetry | 0.0042 kPa | –
357.8 K, isothermal thermogravimetry | 0.004 kPa | –
359.3 K, isothermal thermogravimetry | 0.005 kPa | –
361.5 K, isothermal thermogravimetry | 0.0052 kPa | –
363.2 K, isothermal thermogravimetry | 0.006 kPa | –
364 K, isothermal thermogravimetry | 0.0058 kPa | –
364.9 K, isothermal thermogravimetry | 0.0082 kPa | –
367.2 K, isothermal thermogravimetry | 0.0075 kPa | –
368.1 K, isothermal thermogravimetry | 0.0104 kPa | –
371.1 K, isothermal thermogravimetry | 0.0122 kPa | –
372.9 K, isothermal thermogravimetry | 0.0122 kPa | –
374.3 K, isothermal thermogravimetry | 0.0169 kPa | –
376.2 K, isothermal thermogravimetry | 0.017 kPa | –
377.4 K, isothermal thermogravimetry | 0.0225 kPa | –
377.5 K, non-isothermal thermogravimetry | 0.024 kPa | 0.024 kPa
378.3 K, non-isothermal thermogravimetry | 0.026 kPa | 0.026 kPa
379.1 K, non-isothermal thermogravimetry | 0.027 kPa | 0.027 kPa
379.3 K, isothermal thermogravimetry | 0.0228 kPa | –
379.9 K, non-isothermal thermogravimetry | 0.028 kPa | 0.028 kPa
380.7 K, isothermal thermogravimetry | 0.0294 kPa | –
380.7 K, non-isothermal thermogravimetry | 0.03 kPa | 0.03 kPa
381.5 K, non-isothermal thermogravimetry | 0.032 kPa | 0.032 kPa
381.8 K, isothermal thermogravimetry | 0.0277 kPa | –
382.4 K, non-isothermal thermogravimetry | 0.034 kPa | 0.034 kPa
383.2 K, non-isothermal thermogravimetry | 0.037 kPa | 0.037 kPa
384 K, isothermal thermogravimetry | 0.0365 kPa | –
384 K, non-isothermal thermogravimetry | 0.038 kPa | 0.038 kPa
384.8 K, non-isothermal thermogravimetry | 0.041 kPa | 0.041 kPa
386.4 K, non-isothermal thermogravimetry | – | 0.044 kPa
387 K, non-isothermal thermogravimetry | – | 0.049 kPa
387.4 K, isothermal thermogravimetry | – | 0.045 kPa
387.6 K, non-isothermal thermogravimetry | – | 0.044 kPa
387.9 K, non-isothermal thermogravimetry | – | 0.046 kPa
388.2 K, non-isothermal thermogravimetry | – | 0.044 kPa
388.6 K, non-isothermal thermogravimetry | – | 0.043 kPa
389.2 K, isothermal thermogravimetry | – | 0.049 kPa
389.9 K, isothermal thermogravimetry | – | 0.055 kPa
390.5 K, isothermal thermogravimetry | – | 0.053 kPa
390.8 K, non-isothermal thermogravimetry | – | 0.051 kPa
392.1 K, isothermal thermogravimetry | – | 0.06 kPa
392.1 K, non-isothermal thermogravimetry | – | 0.065 kPa
393.2 K, non-isothermal thermogravimetry | – | 0.06 kPa
393.5 K, isothermal thermogravimetry | – | 0.07 kPa
393.6 K, isothermal thermogravimetry | – | 0.065 kPa
394.1 K, non-isothermal thermogravimetry | – | 0.067 kPa
395 K, non-isothermal thermogravimetry | – | 0.07 kPa
395.9 K, non-isothermal thermogravimetry | – | 0.079 kPa
396.6 K, isothermal thermogravimetry | – | 0.08 kPa
396.7 K, non-isothermal thermogravimetry | – | 0.085 kPa
397.6 K, non-isothermal thermogravimetry | – | 0.074 kPa
398.5 K, non-isothermal thermogravimetry | – | 0.074 kPa
398.7 K, isothermal thermogravimetry | – | 0.088 kPa
398.9 K, isothermal thermogravimetry | – | 0.086 kPa
399 K, isothermal thermogravimetry | – | 0.093 kPa
399.9 K, isothermal thermogravimetry | – | 0.093 kPa
400.2 K, non-isothermal thermogravimetry | – | 0.088 kPa
400.3 K, isothermal thermogravimetry | – | 0.095 kPa
401 K, non-isothermal thermogravimetry | – | 0.1 kPa
401.7 K, isothermal thermogravimetry | – | 0.103 kPa
401.9 K, non-isothermal thermogravimetry | – | 0.109 kPa
402 K, non-isothermal thermogravimetry | – | 0.095 kPa
402.8 K, non-isothermal thermogravimetry | – | 0.106 kPa
403.6 K, non-isothermal thermogravimetry | – | 0.104 kPa
403.7 K, isothermal thermogravimetry | – | 0.114 kPa and 0.111 kPa
404.4 K, non-isothermal thermogravimetry | – | 0.125 kPa
405.3 K, non-isothermal thermogravimetry | – | 0.131 kPa
406.1 K, non-isothermal thermogravimetry | – | 0.139 kPa
406.5 K, isothermal thermogravimetry | – | 0.122 kPa
406.9 K, isothermal thermogravimetry | – | 0.133 kPa
406.9 K, non-isothermal thermogravimetry | – | 0.119 kPa
407.7 K, non-isothermal thermogravimetry | – | 0.153 kPa
408.5 K, non-isothermal thermogravimetry | – | 0.142 kPa
409.3 K, non-isothermal thermogravimetry | – | 0.158 kPa
410.2 K, non-isothermal thermogravimetry | – | 0.148 kPa
411 K, non-isothermal thermogravimetry | – | 0.174 kPa
411.8 K, non-isothermal thermogravimetry | – | 0.168 kPa
412.6 K, non-isothermal thermogravimetry | – | 0.177 kPa
413.4 K, non-isothermal thermogravimetry | – | 0.174 kPa
414.3 K, non-isothermal thermogravimetry | – | 0.192 kPa
415.1 K, non-isothermal thermogravimetry | – | 0.202 kPa
415.9 K, non-isothermal thermogravimetry | – | 0.195 kPa
416.8 K, non-isothermal thermogravimetry | – | 0.211 kPa
417.6 K, non-isothermal thermogravimetry | – | 0.229 kPa
418.4 K, non-isothermal thermogravimetry | – | 0.248 kPa
419.3 K, non-isothermal thermogravimetry | – | 0.261 kPa
420.1 K, non-isothermal thermogravimetry | – | 0.257 kPa
421 K, non-isothermal thermogravimetry | – | 0.254 kPa
421.8 K, non-isothermal thermogravimetry | – | 0.267 kPa
422.7 K, non-isothermal thermogravimetry | – | 0.286 kPa
423.6 K, non-isothermal thermogravimetry | – | 0.306 kPa
424.5 K, non-isothermal thermogravimetry | – | 0.301 kPa
425.4 K, non-isothermal thermogravimetry | – | 0.347 kPa
426.4 K, non-isothermal thermogravimetry | – | 0.366 kPa
426.8 K, non-isothermal thermogravimetry | – | 0.371 kPa
427.5 K, non-isothermal thermogravimetry | – | 0.405 kPa
428.6 K, non-isothermal thermogravimetry | – | 0.367 kPa
428.7 K, non-isothermal thermogravimetry | – | 0.416 kPa

Clc1c(Cl)c(Cl)c(Cl)c(Cl)c1Cl [hexachlorobenzene]
vapor or sublimation pressure, Crystal
Conditions | isothermal thermogravimetry | non-isothermal thermogravimetry
359.7 K | 0.002 kPa | –
360.2 K | 0.003 kPa | –
361.6 K | 0.003 kPa | –
362.5 K | 0.003 kPa | –
363.6 K | 0.004 kPa | –
364.4 K | 0.003 kPa | –
364.5 K | 0.004 kPa | –
365.4 K | 0.004 kPa | –
365.5 K | 0.004 kPa | –
367.4 K | 0.005 kPa | –
368 K | 0.005 kPa | –
369.5 K | 0.005 kPa | –
370.3 K | 0.005 kPa | –
371 K | 0.006 kPa | –
371.5 K | 0.006 kPa and 0.005 kPa | –
374.1 K | 0.007 kPa | –
377.1 K | 0.008 kPa | –
378.1 K | 0.008 kPa | –
378.2 K | 0.008 kPa | –
381.4 K | 0.012 kPa and 0.011 kPa | –
382.3 K | 0.012 kPa | –
382.4 K | 0.011 kPa | –
383.1 K | 0.012 kPa | –
384.4 K | 0.014 kPa | –
385.8 K | 0.015 kPa | –
386.2 K | 0.015 kPa | –
386.6 K | 0.013 kPa | –
388.5 K | 0.016 kPa | –
392.7 K | 0.021 kPa | –
393.3 K | 0.024 kPa | –
396.3 K | 0.026 kPa | –
396.7 K | 0.026 kPa | –
397.5 K | – | 0.038 kPa
399.6 K | 0.031 kPa | –
400.4 K | – | 0.048 kPa
400.6 K | 0.038 kPa | –
400.8 K | – | 0.041 kPa
401.2 K | – | 0.048 kPa
402 K | – | 0.047 kPa
402.8 K | – | 0.057 kPa
403.2 K | 0.044 kPa | –
403.6 K | – | 0.05 kPa
404.1 K | – | 0.061 kPa
404.4 K | 0.043 kPa | –
404.5 K | – | 0.051 kPa
404.9 K | – | 0.058 kPa
405.3 K | – | 0.053 kPa
405.8 K | – | 0.063 kPa
406.1 K | – | 0.052 kPa
406.5 K | – | 0.06 kPa
407 K | – | 0.064 kPa
407.4 K | – | 0.061 kPa
407.8 K | – | 0.064 kPa
408.2 K | – | 0.07 kPa
408.3 K | 0.057 kPa | –
408.6 K | – | 0.066 kPa
409 K | – | 0.078 kPa
409.4 K | – | 0.071 kPa
409.8 K | – | 0.079 kPa
410.2 K | – | 0.076 kPa
410.6 K | – | 0.073 kPa
411 K | – | 0.074 kPa
411.4 K | – | 0.089 kPa
411.9 K | – | 0.069 kPa
412.3 K | 0.066 kPa | 0.078 kPa
412.7 K | – | 0.084 kPa
413.2 K | – | 0.083 kPa
413.6 K | – | 0.085 kPa
414 K | – | 0.088 kPa
414.4 K | – | 0.093 kPa
414.9 K | – | 0.093 kPa
415.3 K | – | 0.089 kPa
415.7 K | – | 0.101 kPa
416.1 K | – | 0.094 kPa
416.5 K | – | 0.101 kPa
417 K | – | 0.101 kPa
417.4 K | – | 0.11 kPa
417.8 K | – | 0.118 kPa
418.2 K | – | 0.112 kPa
418.6 K | – | 0.113 kPa
419.1 K | – | 0.129 kPa
419.5 K | – | 0.131 kPa
419.9 K | – | 0.118 kPa
420.3 K | – | 0.134 kPa
420.7 K | – | 0.134 kPa
421.1 K | – | 0.128 kPa
421.5 K | – | 0.131 kPa
421.9 K | – | 0.144 kPa
422.3 K | – | 0.144 kPa
422.8 K | – | 0.143 kPa
423.2 K | – | 0.159 kPa
423.6 K | – | 0.146 kPa
424 K | – | 0.149 kPa
424.4 K | – | 0.152 kPa
424.8 K | – | 0.169 kPa
425.7 K | – | 0.173 kPa
